# pIC50: −log10 of the molar value. Where “and” joins values, the source holds several entries; their conditions need not be identical. Identical values can stand only once. Counter-ions that a name gives are not always drawn. Like-named read-outs stand apart in the source and are kept apart here.
# Legend:
# [1] = molecular target: T1, human FXR-LBD (GST-FXR-LBD) (Homo sapiens, UniProt Q96RI1); experiment: HTRF coactivator recruitment assay, antagonist mode (in the presence of 50 μM CDCA); type: biochemical; conditions: for Relative activity, antagonist mode: 50 μM compound in the presence of 50 μM CDCA, standardized against positive control DY268 (50 μM = 100%); for activity at 1.95 µM / activity at 3.9 µM / activity at 31.25 µM / activity at 62.5 µM / activity at 250 µM / activity at 0.98 µM / activity at 7.8 µM / activity at 125 µM / activity at […]: read-out: Relative antagonist activity (%); for pIC50: read-out: IC50, inhibition of CDCA-induced coactivator recruitment to FXR
# T1 construct: the human FXR-LBD (residues 234–472) was expressed as a GST fusion protein GST-FXR-LBD; made in house; host or cells: E. coli BL21(DE3)
# T1 sequence (Q96RI1 234-472 isoform Q96RI1-2): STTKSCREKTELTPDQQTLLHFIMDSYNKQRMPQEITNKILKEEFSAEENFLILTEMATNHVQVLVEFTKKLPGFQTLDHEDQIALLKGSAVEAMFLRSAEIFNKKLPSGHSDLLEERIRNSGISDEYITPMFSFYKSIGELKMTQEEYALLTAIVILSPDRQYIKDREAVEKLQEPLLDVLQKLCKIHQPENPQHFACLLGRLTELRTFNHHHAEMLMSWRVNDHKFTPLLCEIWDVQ
# [2] = molecular target: T1, human FXR-LBD (GST-FXR-LBD); experiment: HTRF coactivator recruitment assay, agonist mode; type: biochemical
# [3] = molecular target: T2, FXR (pCDNA3.1-hFXR, FXRE-luc) (Homo sapiens, UniProt Q96RI1); experiment: cell-based; type: cell-based
# T2 construct: host or cells: HEK 293T
# T2 sequence (Q96RI1 1-486): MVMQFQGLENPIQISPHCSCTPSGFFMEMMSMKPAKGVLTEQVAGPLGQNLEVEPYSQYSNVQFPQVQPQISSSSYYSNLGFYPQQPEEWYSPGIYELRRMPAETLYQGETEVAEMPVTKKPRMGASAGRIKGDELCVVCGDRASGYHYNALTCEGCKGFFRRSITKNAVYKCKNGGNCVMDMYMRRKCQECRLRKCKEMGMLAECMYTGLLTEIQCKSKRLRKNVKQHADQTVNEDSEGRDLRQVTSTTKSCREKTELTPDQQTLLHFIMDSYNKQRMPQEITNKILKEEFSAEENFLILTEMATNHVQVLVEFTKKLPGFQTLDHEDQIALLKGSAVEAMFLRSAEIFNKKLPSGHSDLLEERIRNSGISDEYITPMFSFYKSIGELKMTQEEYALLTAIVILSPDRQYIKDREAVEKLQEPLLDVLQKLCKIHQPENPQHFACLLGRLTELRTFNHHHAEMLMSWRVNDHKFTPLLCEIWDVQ
# [4] = 1.95 μM compound + 50 μM CDCA, replicates
# [5] = 3.90 μM compound + 50 μM CDCA, replicates
# [6] = 31.25 μM compound + 50 μM CDCA, replicates
# [7] = 62.50 μM compound + 50 μM CDCA, replicates
# [8] = 250.00 μM compound + 50 μM CDCA, standardized to DMSO and 50 μM CDCA, replicates
# [9] = 50 μM compound, standardized against positive control CDCA (50 μM = 100%)
# [10] = 10 μM compound in the presence of 50 μM CDCA, DMSO 0%, 50 μM CDCA 100%, HEK 293T, replicates
# [11] = 25 μM compound in the presence of 50 μM CDCA, DMSO 0%, 50 μM CDCA 100%, HEK 293T, replicates
# [12] = 0.98 μM compound + 50 μM CDCA, replicates
# [13] = 7.80 μM compound + 50 μM CDCA, replicates
# [14] = 125.00 μM compound + 50 μM CDCA, replicates
# [15] = […] compound + 50 μM CDCA, replicates
compound,measurement,setting,value
"N#Cc1nn(-c2c(Cl)cc(C(F)(F)F)cc2Cl)c(N)c1S(=O)(=O)C(F)(F)F [FIP-S, fipronil sulfone]","Relative activity, antagonist mode",[1],13.98%
same,"Relative activity, agonist mode",[2],2.06%
"C/C=C1\C(=O)C[C@H]2[C@@H]3CCC4=CC(=O)CC[C@]4(C)[C@H]3CC[C@]12C [GS, guggulsterone]",activity at 0.01 µM,"[3]; HEK-293T, 0.01 μM, dose-response, replicates, read-out: Relative luciferase activity (%)",96.6%
same,activity at 0.1 µM,"[3]; HEK-293T, 0.1 μM, dose-response, replicates, read-out: Relative luciferase activity (%)",81%
same,activity at 0.5 µM,"[3]; HEK-293T, 0.5 μM, dose-response, replicates, read-out: Relative luciferase activity (%)",81%
same,activity at 1 µM,"[3]; HEK-293T, 1 μM, dose-response, replicates, read-out: Relative luciferase activity (%)",79.6%
same,activity at 5 µM,"[3]; HEK-293T, 5 μM, dose-response, replicates, read-out: Relative luciferase activity (%)",66.4%
same,activity at 10 µM,"[3]; HEK-293T, 10 μM, dose-response, replicates, read-out: Relative luciferase activity (%)",53.9%
same,activity at 25 µM,"[3]; HEK-293T, 25 μM, dose-response, replicates, read-out: Relative luciferase activity (%)",30.5%
same,activity at 50 µM,"[3]; HEK-293T, 50 μM, dose-response, replicates, read-out: Relative luciferase activity (%)",29.9%
"CC(=O)c1cc2c(cc1C)C(C)(C)C(C)CC2(C)C (stereo not drawn) [AHTN, tonalid]",Luciferase activity compared with DMSO control (in words),[3],significantly less luciferase activity
same,activity at 25 µM,"[3]; HEK-293T, read-out: Relative luciferase activity (%)",40.1%
same,activity at 1.95 µM,[1]; [4],96.2%
same,activity at 3.9 µM,[1]; [5],93.9%
same,activity at 31.25 µM,[1]; [6],80.9%
same,"Relative activity, antagonist mode",[1],48.54%
same,activity at 62.5 µM,[1]; [7],61.4%
same,activity at 250 µM,[1]; [8],31.2%
same,pIC50,[1],4.23
same,activity at 0.98 µM,[1],93.5%
same,activity at 7.8 µM,[1],94.1%
same,activity at 125 µM,[1],41.4%
same,activity at […],[1],89.3%
same,"Relative activity, agonist mode",[2],2.19%
COc1cccc(Cn2cc(C(=O)Nc3ccc(C)c(S(=O)(=O)N4CCOCC4)c3)c(-c3ccc(C)cc3)n2)c1 [DY268],Relative luciferase activity (%),"[3]; 0.001 μM, dose-response, replicates",91.11% and 96.02% and 92.43%
same,Relative luciferase activity (%),"[3]; 0.01 μM, dose-response, replicates",84.90% and 84.00% and 97.07%
same,Relative luciferase activity (%),"[3]; 0.05 μM, dose-response, replicates",69.60% and 78.44% and 89.94%
same,Relative luciferase activity (%),"[3]; 0.1 μM, dose-response, replicates",57.18% and 63.12% and 63.84%
same,Relative luciferase activity (%),"[3]; 0.5 μM, dose-response, replicates",12.17% and 13.75% and 19.14%
same,Relative luciferase activity (%),"[3]; 1 μM, dose-response, replicates",-1.72% and -0.13% and 6.23%
same,Relative luciferase activity (%),"[3]; 5 μM, dose-response, replicates",-18.25% and -19.25% and -13.03%
same,Relative luciferase activity (%),"[3]; 10 μM, dose-response, replicates",-15.95% and -18.33% and -14.15%
same,Rate of FXR inhibition at the maximum exposure concentration,"[3]; HEK 293T DLR assay, maximum exposure concentration",116.14%
same,pIC50,"[3]; HEK 293T cell-based DLR assay, read-out: IC50, inhibition of FXR transcriptional activity",6.60
same,"Relative activity, antagonist mode",[1],100.00%
"CCCCOC(=O)CC(CC(=O)OCCCC)(OC(C)=O)C(=O)OCCCC [ATBC, acetyl tributyl citrate]","Relative activity, antagonist mode",[1],12.58%
same,"Relative activity, agonist mode",[2]; [9],2.49%
"O=C1Nc2ccc(Cl)cc2[C@@](C#CC2CC2)(C(F)(F)F)O1 [EFV, efavirenz]",Luciferase activity compared with DMSO control (in words),"[3]; 10 μM and 25 μM, in the presence of 50 μM CDCA, HEK 293T",significantly less luciferase activity
same,Relative luciferase activity (%),[3]; [10],29.3% and 36.3%
same,Relative luciferase activity (%),[3]; [11],36.4% and 33.0% and 15.9%
same,activity at 10 µM,"[3]; HEK-293T, 10 μM compound in the presence of 50 μM CDCA, DMSO 0%, 50 μM CDCA 100%, HEK 293T, replicates, read-out: Relative luciferase activity (%)",26.9%
same,Relative antagonist activity (%),[1]; [12],83.56% and 97.08%
same,activity at 0.98 µM,[1]; [12],100%
same,Relative antagonist activity (%),[1]; [4],96.79% and 93.64%
same,activity at 1.95 µM,[1]; [4],101%
same,Relative antagonist activity (%),[1]; [5],97.17% and 94.87%
same,activity at 3.9 µM,[1]; [5],94.6%
same,Relative antagonist activity (%),[1]; [13],92.66% and 89.45%
same,activity at 7.8 µM,[1]; [13],91%
same,Relative antagonist activity (%),[1]; [6],63.55% and 62.84%
same,activity at 31.25 µM,[1]; [6],61.1%
same,"Relative activity, antagonist mode",[1],80.64%
same,Relative antagonist activity (%),[1]; [7],18.58% and 19.89%
same,activity at 62.5 µM,[1]; [7],20.8%
same,Relative antagonist activity (%),[1]; [14],-1.08% and -0.91% and -0.84%
same,Relative antagonist activity (%),[1]; [8],-2.04% and -2.11% and -2.16%
same,activity at […],[1]; [15],82%
same,pIC50,[1],4.39
same,"Relative activity, agonist mode",[2]; [9],1.60%
"CCCCCCCC/C=C\CCCCCCCC(=O)NCCO [OEA, oleoyl ethanolamide]",Relative luciferase activity (%),[3]; [10],99.0% and 100.1% and 128.0%
same,Relative luciferase activity (%),[3]; [11],96.5% and 110.1%
same,activity at 25 µM,"[3]; HEK-293T, 25 μM compound in the presence of 50 μM CDCA, DMSO 0%, 50 μM CDCA 100%, HEK 293T, replicates, read-out: Relative luciferase activity (%)",110%
same,activity at 0.98 µM,[1]; [12],106%
same,activity at 1.95 µM,[1]; [4],114%
same,activity at 3.9 µM,[1]; [5],110%
same,activity at 7.8 µM,[1]; [13],110%
same,activity at 31.25 µM,[1]; [6],102%
same,activity at 62.5 µM,[1]; [7],101%
same,activity at 125 µM,[1]; [14],96.2%
same,activity at 250 µM,[1]; [8],89.5%
same,activity at […],[1]; [15],104%
same,pIC50,[1],4.47
same,"Relative activity, agonist mode",[2],0.00%
"O=C(Nc1ccc(Cl)cc1)Nc1ccc(Cl)c(Cl)c1 [TCC, triclocarban]","Relative activity, antagonist mode",[1],10.80%
same,"Relative activity, agonist mode",[2],0.44%
"CCCCC(CC)COP(=O)(OCC(CC)CCCC)OCC(CC)CCCC (stereo not drawn) [TEHP, tris(2-ethylhexyl) phosphate]","Relative activity, antagonist mode",[1],17.25%
same,"Relative activity, agonist mode",[2],0.00%
"CCCCC(CC)COC(=O)c1ccccc1C(=O)OCC(CC)CCCC (stereo not drawn) [DEHP, bis(2-ethylhexyl) phthalate]","Relative activity, antagonist mode",[1],4.48%
same,"Relative activity, agonist mode",[2],0.27%
"CC1COC(=O)c2cc3c(cc21)C(C)(C)C(C)C3(C)C (stereo not drawn) [GAX, galaxolidone]","Relative activity, antagonist mode",[1],14.46%
same,"Relative activity, agonist mode",[2],0.32%
"CCCCCCCCCCCCCCCC(=O)NCCO [PEA, palmitoyl ethanolamide]","Relative activity, antagonist mode",[1],3.94%
same,"Relative activity, agonist mode",[2]; [9],0.57%
"CC(C)(C)CC(C)(C)c1ccc(O)c(-n2nc3ccccc3n2)c1 [UV329, octrizole]","Relative activity, antagonist mode",[1],18.06%
same,"Relative activity, agonist mode",[2]; [9],0.085%
"CC(C)(C)c1cc(C=O)cc(C(C)(C)C)c1O [BHT-C, 3,5-Ditert-butyl-4-hydroxybenzaldehyde]","Relative activity, antagonist mode",[1],6.36%
same,"Relative activity, agonist mode",[2]; [9],0.19%
